Assay results published in ChEMBL document CHEMBL5338758, “Design, Synthesis, and Bioevaluation of Novel MyD88 Inhibitor c17 against Acute Lung Injury Derived from the Virtual Screen” (J Med Chem, 2023).
Active and inactive are the calls of the source. The calls are words filed in the database; no cut-off is given here.

Assays:
[1] = tested on: Mus musculus; test: (§1) Anti-inflammatory activity against LPS-induced […] mouse model of […] assessed as alleviation of interstitial edema in lung at 20 mg/kg, po pre-treated with compound for 30 mins followed by LPS stimulation and measured after 6 hrs by H&E staining based histopathological analysis; assay type: functional, organism-based; settings: time 6.5 hrs
[2] = Drug distribution in Sprague-Dawley rat lung at 1 mg/kg, iv measured after 4 hrs by LC-MS/MS analysis; assay type: ADME, organism-based; settings: read-out: Drug uptake
[3] = tested on: THP-1; test: Anti-inflammatory activity in human THP-1 cells assessed as inhibition of LPS-stimulated IL-6 release at 1.25 to 20 uM by ELISA analysis; assay type: functional, cell-based; settings: dose 1.25-20 µM
[4] = Drug distribution in Sprague-Dawley rat spleen at 1 mg/kg, iv measured after 4 hrs by LC-MS/MS analysis; assay type: ADME, organism-based; settings: read-out: Drug uptake
[5] = tested on: Mus musculus; test: Anti-inflammatory activity against LPS-induced […] mouse model of […] assessed as decrease in IL-6 mRNA level in lung at 20 mg/kg, po pre-treated with compound for 30 mins followed by LPS stimulation and measured after 6 hrs by qRT-PCR analysis; assay type: functional, organism-based; settings: time 6.5 hrs
[6] = Drug distribution in Sprague-Dawley rat liver at 10 mg/kg, po measured after 1 hrs by LC-MS/MS analysis; assay type: ADME, organism-based; settings: read-out: Drug uptake
[7] = Drug distribution in Sprague-Dawley rat brain at 1 mg/kg, iv measured after 2 hrs by LC-MS/MS analysis; assay type: ADME, organism-based; settings: read-out: Drug uptake
[8] = Drug distribution in Sprague-Dawley rat kidney at 10 mg/kg, po measured after 8 hrs by LC-MS/MS analysis; assay type: ADME, organism-based; settings: read-out: Drug uptake
[9] = tested on: Mus musculus; test: Anti-inflammatory activity against LPS-induced […] mouse model of […] assessed as decrease in TNF-alpha level in BALF at 20 mg/kg, po pre-treated with compound for 30 mins followed by LPS stimulation and measured after 6 hrs; assay type: functional, organism-based; settings: time 6.5 hrs
[10] = tested on: Mus musculus; test: Anti-inflammatory activity against LPS-induced […] mouse model of […] assessed as decrease in TNF-alpha mRNA level in lung at 20 mg/kg, po pre-treated with compound for 30 mins followed by LPS stimulation and measured after 6 hrs by qRT-PCR analysis; assay type: functional, organism-based; settings: time 6.5 hrs
[11] = Drug distribution in Sprague-Dawley rat lung at 10 mg/kg, po measured after 8 hrs by LC-MS/MS analysis; assay type: ADME, organism-based; settings: read-out: Drug uptake
[12] = Drug distribution in Sprague-Dawley rat kidney at 10 mg/kg, po measured after 1 hrs by LC-MS/MS analysis; assay type: ADME, organism-based; settings: read-out: Drug uptake
[13] = Drug distribution in Sprague-Dawley rat heart at 10 mg/kg, po measured after 8 hrs by LC-MS/MS analysis; assay type: ADME, organism-based; settings: read-out: Drug uptake
[14] = Drug distribution in Sprague-Dawley rat heart at 1 mg/kg, iv measured after 2 hrs by LC-MS/MS analysis; assay type: ADME, organism-based; settings: read-out: Drug uptake
[15] = tested on: J774.A1; test: Anti-inflammatory activity in mouse J774.A1 cells assessed as inhibition of LPS-induced TNF-alpha production pre-stimulated with LPS for 24 hrs followed by compound addition and measured after 0.5 hrs by ELISA analysis; assay type: functional, cell-based
[16] = Half-life in Sprague-Dawley rat at 10 mg/kg, po measured at 15 to 1440 min by LC-MS/MS analysis; assay type: ADME, organism-based; settings: in vivo, time 15-1440 min
[17] = Drug distribution in Sprague-Dawley rat heart at 1 mg/kg, iv measured after 4 hrs by LC-MS/MS analysis; assay type: ADME, organism-based; settings: read-out: Drug uptake
[18] = Drug distribution in Sprague-Dawley rat brain at 10 mg/kg, po measured after 8 hrs by LC-MS/MS analysis; assay type: ADME, organism-based; settings: read-out: Drug uptake
[19] = tested on: Mus musculus; test: Anti-inflammatory activity against LPS-induced […] mouse model of […] assessed as decrease in TNF-alpha level in serum at 20 mg/kg, po pre-treated with compound for 30 mins followed by LPS stimulation and measured after 6 hrs; assay type: functional, organism-based; settings: time 6.5 hrs
[20] = tested on: THP-1; test: Anti-inflammatory activity in human THP-1 cells assessed as inhibition of LPS-stimulated TNF-alpha release at 1.25 to 20 uM by ELISA analysis; assay type: functional, cell-based; settings: dose 1.25-20 µM
[21] = Drug distribution in Sprague-Dawley rat liver at 1 mg/kg, iv measured after 0.5 hrs by LC-MS/MS analysis; assay type: ADME, organism-based; settings: read-out: Drug uptake
[22] = Drug distribution in Sprague-Dawley rat lung at 1 mg/kg, iv measured after 0.5 hrs by LC-MS/MS analysis; assay type: ADME, organism-based; settings: read-out: Drug uptake
[23] = Tmax in Sprague-Dawley rat at 10 mg/kg, po measured at 15 to 1440 min by LC-MS/MS analysis; assay type: ADME, organism-based; settings: in vivo, time 15-1440 min
[24] = Drug distribution in Sprague-Dawley rat spleen at 1 mg/kg, iv measured after 0.5 hrs by LC-MS/MS analysis; assay type: ADME, organism-based; settings: read-out: Drug uptake
[25] = Stability of compound in rat serum at 25 degreeC measured every 2 hrs for 24 hrs by HPLC analysis; assay type: ADME, cell-free
[26] = tested on: Mus musculus; test: Anti-inflammatory activity against LPS-induced […] mouse model of […] assessed as decrease in IL-6 level in BALF at 20 mg/kg, po pre-treated with compound for 30 mins followed by LPS stimulation and measured after 6 hrs; assay type: functional, organism-based; settings: time 6.5 hrs
[27] = biological target: Myeloid differentiation primary response protein MyD88 (Homo sapiens, UniProt Q99836); test: Binding affinity to human MyD88 TIR domain assessed as equilibrium dissociation constant by SPR analysis
Chain of Myeloid differentiation primary response protein MyD88 (Q99836 whole entry, the tested form may be a part): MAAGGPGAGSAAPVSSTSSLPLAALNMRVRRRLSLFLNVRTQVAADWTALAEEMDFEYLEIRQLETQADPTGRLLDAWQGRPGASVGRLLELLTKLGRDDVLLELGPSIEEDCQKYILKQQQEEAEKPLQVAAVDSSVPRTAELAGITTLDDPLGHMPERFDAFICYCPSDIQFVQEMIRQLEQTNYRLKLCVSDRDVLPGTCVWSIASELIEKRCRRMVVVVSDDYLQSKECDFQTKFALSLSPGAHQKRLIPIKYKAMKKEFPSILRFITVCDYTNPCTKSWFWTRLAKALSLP

[28] = Drug distribution in Sprague-Dawley rat spleen at 10 mg/kg, po measured after 1 hrs by LC-MS/MS analysis; assay type: ADME, organism-based; settings: read-out: Drug uptake
[29] = Drug distribution in Sprague-Dawley rat kidney at 1 mg/kg, iv measured after 4 hrs by LC-MS/MS analysis; assay type: ADME, organism-based; settings: read-out: Drug uptake
[30] = Drug distribution in Sprague-Dawley rat lung at 10 mg/kg, po measured after 1 hrs by LC-MS/MS analysis; assay type: ADME, organism-based; settings: read-out: Drug uptake
[31] = Tmax in Sprague-Dawley rat at 1 mg/kg, iv measured at 5 to 1440 min by LC-MS/MS analysis; assay type: ADME, organism-based; settings: in vivo, time 5-1440 min
[32] = Drug distribution in Sprague-Dawley rat liver at 1 mg/kg, iv measured after 4 hrs by LC-MS/MS analysis; assay type: ADME, organism-based; settings: read-out: Drug uptake
[33] = tested on: J774.A1; test: Cytotoxicity against mouse J774.A1 cells assessed as reduction in cell survival incubated for 24 hrs by MTT assay; assay type: toxicity, cell-based; settings: j774.a1, 24 h
[34] = Cmax in Sprague-Dawley rat at 10 mg/kg, po measured at 15 to 1440 min by LC-MS/MS analysis; assay type: ADME, organism-based; design: time lower 15 min, dose 10 mg/kg, time upper 1440 min, route po; settings: in vivo
[35] = tested on: Mus musculus; test: as §1, with “inflammatory infiltration” for “interstitial edema”; assay type: functional, organism-based; settings: time 6.5 hrs

SMILES: COc1ccc(NS(=O)(=O)c2ccc(N3CCN(Cc4cccc([N+](=O)[O-])c4)CC3)c([N+](=O)[O-])c2)cn1
- Activity [1]: Active
- concentration at 4 h [2]: 502 ng/g
- inhibition [3]: Active
- concentration at 4 h [4]: 113 ng/g
- Activity [5]: Active
- concentration at 1 h [6]: 267 ng/g
- concentration at 2 h [7]: 0.66 ng/g
- concentration at 8 h [8]: 656 ng/g
- Activity [9]: Active
- Activity [10]: Active
- concentration at 8 h [11]: 527 ng/g
- concentration at 1 h [12]: 4.15 ng/g
- concentration at 8 h [13]: 452 ng/g
- concentration at 2 h [14]: 118 ng/g
- IC50 [15]: 8.17 µM
- half-life [16]: 420 min
- concentration at 4 h [17]: 275 ng/g
- concentration at 8 h [18]: 39.9 ng/g
- Activity [19]: Active
- inhibition [20]: Active
- concentration at 0.5 h [21]: 166 ng/g
- concentration at 0.5 h [22]: 98.2 ng/g
- Tmax [23]: 48 min
- concentration at 0.5 h [24]: 32.2 ng/g
- Stability [25]: Stable
- Activity [26]: Active
- Kd [27]: 53 µM
- concentration at 1 h [28]: 78.8 ng/g
- concentration at 4 h [29]: 250 ng/g
- concentration at 1 h [30]: 41.6 ng/g
- Tmax [31]: 6 min
- concentration at 4 h [32]: 137 ng/g
- Activity [33]: Non-Toxic
- Cmax [34]: 2210 ng/mL
- Activity [35]: Active
